Experimental data as given in patent US5563130A, “Methods for inhibiting angiogenesis, proliferation of endothelial or tumor cells and tumor growth” (American Cyanamid Company, priority 1994, dated 1996).

Key:
Format in all cases: cell-based
HTB 16 = experiment: Antiproliferative activity in human tumor cell line HTB 16; conditions: ovarian tumor line; PROTOCOL 1 and PROTOCOL 2
Method: (§1) PROTOCOL 1, 2, and 3 are described in greater detail hereinbelow. In general, according to PROTOCOLS 1 and 2, the target ABAE and/or Human Tumor cells are exposed to the compound of Formula I for 48 hours. PROTOCOL 3 exposes ABAE cell to the compound for 4 days. A detailed description of the protocol is as follows:
(§2) Antiproliferative Activity in Human Tumor and Adult Bovine Aortic Endothelial (ABAE) Cell Lines
(§3) The antiproliferative activity of the compounds of Formula I of the present invention is evaluated in a panel comprised of human tumor cell lines and an adult bovine aortic endothelial cell line (ABAE). The human tumor cell lines are from:
(§4) All cell lines are maintained in log phase in RPMI 1640 media, supplemented with 5% fetal calf serum, penicillin/streptomycin and 2 mM L-glutamine. Cultures are renewed after 20 passages with cells from a fresh stock of batch-frozen early passage cells. Cell lines are routinely checked for mycoplasma contamination (Genprobe). In a laminar flow hood, cells (1-5×10^4) are plated into 96-well microtiter plates in a volume of 0.1 ml/well with a bulk microtiter dispenser (Denley). […] At this concentration, dimethylsulfoxide has no effect on cell growth. Compounds are added using a Tomtec dispenser which simultaneously dispenses from one 96-well plate, containing the drug dilutions, to the plates containing the cells. After two days of continuous drug exposure, 50% cold trichloroacetic acid (TCA) is added to 10% final concentration to fix the cells, and after 60 minutes at 4° C., the TCA is aspirated and the plates are washed 5 times with deionized water using a microtiter plate washer. The number of cells on the plate are quantitated using a protein dye-binding assay (Monks et al., 1991). A 0.4% solution of the dye, sulforhodamine B, in glacial acetic acid is added to the plates, and the plates are washed 5 times with 1% glacial acetic acid using the automatic plate washed. The bound stain is solubilized with 0.1 ml of 10 mM Tris base. The optical densities are read from an automatic spectrophotometric plate reader (Dynatech) directly to a main frame computer (VAX 8600).
(§5) Positive controls, that include standard chemotherapeutic drugs (i.e., adriamycin, cisplatin, etc.), are included in every experiment.
(§6) Background optical density measurements (complete media-cells, and complete media+drug-cells) are automatically subtracted from the appropriate control and test wells. Mean values and standard errors are determined from duplicate wells. A measure is also made of the optical density at time when the drugs are added. The number of cells after treatment (P), as % of control, is calculated for every concentration of drug, as follows: [formula] wherein: T is optical density measurement for treated cells after 48 hours;
(§7) C is optical density measurement for untreated cells after 48 hours;
(§8) Co is optical density measurement for cells at the time of drug addition.
(§9) IC50 of growth inhibition is calculated from the sets of P values using the RS-1 data package (BBN Software).
(§10) The antiproliferative activity of the compounds of Formula I is evaluated in a panel comprised of human tumor cell lines and an adult bovine aortic endothelial cell line (ABAE) as listed in PROTOCOL 1. This assay is a modification of PROTOCOL 1. The modifications include:
(§11) 1) each concentration for each compound is tested in a single well;
(§12) 2) compounds are tested at 20, 4, 0.8, 0.16 microgram/ml and additionally in some experiments at 100 and 0.32 microgram/ml;
(§13) 3) samples are pipetted into a 96-well plate for each of the cell lines by a Beckman Biomek 1000 SL robot;
(§14) 4) after fixing with TCA each well is washed with 0.35 ml distilled water twice, not five times;
(§15) 5) after staining with sulforhodamine B each well is washed 3 times, not five times; […]

A2780/DDP = experiment: Antiproliferative activity in human ovarian tumor cell line A2780/DDP; conditions: PROTOCOL 1 and PROTOCOL 2
Method: as §1, §2, §3, §4, §5, §6, §7, §8, §9, §10, §11, §12, §13, §14, §15

SW620 = experiment: Antiproliferative activity in human colon tumor cell line SW620; conditions: PROTOCOL 1 and PROTOCOL 2
Method: as §1, §2, §3
(§16) 2) Colon tumors: MIP, CaCo2, and SW620.
as §4, §5, §6, §7, §8, §9, §10, §11, §12, §13, §14, §15

CACO2 = experiment: Antiproliferative activity in human colon tumor cell line CACO2; conditions: PROTOCOL 1 and PROTOCOL 2
Method: as §1, §2, §3, §16
All cell lines are maintained in log phase in RPMI 1640 media, supplemented with 5% fetal calf serum, penicillin/streptomycin and 2 mM L-glutamine. […] The number of cells on the plate are quantitated using a protein dye-binding assay (Monks et al., 1991). […] The optical densities are read from an automatic spectrophotometric plate reader (Dynatech) directly to a main frame computer (VAX 8600). […]
Background optical density measurements (complete media-cells, and complete media+drug-cells) are automatically subtracted from the appropriate control and test wells. Mean values and standard errors are determined from duplicate wells. […]

Human Tumor Cell lines = experiment: Antiproliferative activity in panel of human tumor cell lines
Method: as §1, §2, §3, §16, §4, §5, §6, §7, §8, §9, §10, §11, §12, §13, §14, §15

MIP = experiment: Antiproliferative activity in human colon tumor cell line MIP; conditions: PROTOCOL 1 and PROTOCOL 2
Method: as §1, §2, §3, §16, §4, §5, §6, §7, §8, §9, §10, §11, §12, §13, §14, §15

A2780S = experiment: Antiproliferative activity in human ovarian tumor cell line A2780S; conditions: PROTOCOL 1 and PROTOCOL 2
Method: as §1, §2, §3, §4, §5, §6, §7, §8, §9, §10, §11, §12, §13, §14, §15

C=CCN(CC=C)CC(=O)Nc1ccc2c(c1O)C(=O)C1=C(O)[C@]3(O)C(=O)C(C(N)=O)=C(O)[C@@H](N(C)C)C3CC1C2.Cl.Cl (stereo partly drawn) [Example 2]
HTB 16 IC50 (HTB 16): 1.5 µg/mL | A2780/DDP IC50 (A2780/DDP): 4.0 µg/mL | SW620 IC50 (SW620): 1.5 µg/mL | CACO2 IC50 (CACO2): 4.0 µg/mL | inhibition of cell growth at the highest concentrations (Human Tumor Cell lines; FIG. 2, 6 human tumor cell lines, highest concentrations): < 100% | AVERAGE IC50 FOR TUMOR CELL LINES (Human Tumor Cell lines; average over the tested human tumor cell lines): 2.75 µg/mL | Dead floating cells (Human Tumor Cell lines; even at the highest concentration): not observed | MIP IC50 (MIP): 4.0 µg/mL | A2780S IC50 (A2780S): 1.5 µg/mL
